Measurements published in patent publication US11661410B2 (GLOBAL BLOOD THERAPEUTICS, INC., priority 2017, dated 2023).
Structures can show the parent of a compound that is named as a salt.

biological target: G9a (Homo sapiens (Human), UniProt Q96KQ7); test: G9a AlphaLISA enzymatic activity assay; assay type: biochemical; conditions: not given
Sequence (Q96KQ7 whole entry): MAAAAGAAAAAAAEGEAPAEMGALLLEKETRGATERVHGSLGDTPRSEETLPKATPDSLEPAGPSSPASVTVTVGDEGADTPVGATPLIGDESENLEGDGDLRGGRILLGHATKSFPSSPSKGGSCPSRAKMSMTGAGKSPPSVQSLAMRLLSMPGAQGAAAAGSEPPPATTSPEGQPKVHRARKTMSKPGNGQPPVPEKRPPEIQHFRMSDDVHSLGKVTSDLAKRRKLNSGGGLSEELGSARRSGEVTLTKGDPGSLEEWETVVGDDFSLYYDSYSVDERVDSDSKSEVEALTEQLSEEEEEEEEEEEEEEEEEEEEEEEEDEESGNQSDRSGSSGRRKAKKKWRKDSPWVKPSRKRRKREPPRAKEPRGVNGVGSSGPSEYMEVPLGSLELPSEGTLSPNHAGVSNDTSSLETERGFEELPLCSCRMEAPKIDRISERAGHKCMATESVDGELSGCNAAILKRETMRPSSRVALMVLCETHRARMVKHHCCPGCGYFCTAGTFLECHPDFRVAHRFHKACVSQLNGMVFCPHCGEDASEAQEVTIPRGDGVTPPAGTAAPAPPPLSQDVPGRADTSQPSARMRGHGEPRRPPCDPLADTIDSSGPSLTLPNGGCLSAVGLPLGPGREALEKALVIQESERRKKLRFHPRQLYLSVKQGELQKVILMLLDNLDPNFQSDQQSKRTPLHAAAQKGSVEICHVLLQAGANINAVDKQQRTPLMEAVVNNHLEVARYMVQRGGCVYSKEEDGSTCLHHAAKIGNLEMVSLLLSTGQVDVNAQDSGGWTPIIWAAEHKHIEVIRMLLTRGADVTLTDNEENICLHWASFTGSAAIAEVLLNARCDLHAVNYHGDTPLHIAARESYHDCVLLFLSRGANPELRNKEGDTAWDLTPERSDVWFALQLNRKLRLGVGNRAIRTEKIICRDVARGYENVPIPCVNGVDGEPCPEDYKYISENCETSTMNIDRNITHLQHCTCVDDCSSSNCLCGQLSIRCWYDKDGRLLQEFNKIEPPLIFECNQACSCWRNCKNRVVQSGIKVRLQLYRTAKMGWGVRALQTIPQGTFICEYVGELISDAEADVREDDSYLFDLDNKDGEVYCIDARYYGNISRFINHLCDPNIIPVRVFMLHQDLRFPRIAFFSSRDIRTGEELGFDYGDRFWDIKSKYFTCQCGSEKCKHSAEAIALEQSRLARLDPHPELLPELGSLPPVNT

Row | Compound | pIC50
1 | COc1cc2nc3ccccc3c(NC3CCN(C(C)C)CC3)c2cc1OC [Example 47] | 7.1
2 | COc1cc2nc3c(c(N[C@@H]4CCCN(C)C4)c2cc1OC)CCC3 | 5.48
3 | COc1cc2nc3c(c(NC4CCN(c5ccccc5Cl)CC4)c2cc1OC)CCC3 | 6.72
4 | N-[(azetidin-3-yl)methyl]-6,7-dimethoxy-1H,2H,3H-cyclopenta[b]quinolin-9-amine—2HCl [Example 8] | 7.27
5 | COc1cc2nc3c(c(NCc4cn(C)cn4)c2cc1OC)CCC3 [Example 41] | 5.32
6 | COc1cc2nc3c(c(N[C@@H]4CCCNCC4)c2nc1OC)CCC3 [Example 163, (4R)-N-[2,3-dimethoxy-6H,7H,8H-cyclopenta[b]1,5-naphthyridin-9-yl] azepan-4-amine] | 6.8

same assay, conditions: G9a AlphaLISA; negative log of the IC50 value in molar

Row | pIC50 | IC50 [µM] | Compound
7 | 6.9 |  | COc1cc2nc3c(c(N[C@H]4CNC[C@H](F)C4)c2cc1OC)CCC3 [Example 416, (3R,5R)-N-{6,7-dimethoxy-1H,2H,3H-cyclopenta[b]quinolin-9-yl}-5-fluoropiperidin-3-amine]
8 | 7 |  | CCOc1cc2nc3c(c(N[C@@H]4CCCNC4)c2cc1OC)CCC3 [Example 407, (3R)-N-{6-ethoxy-7-methoxy-1H,2H,3H-cyclopenta[b]quinolin-9-yl}piperidin-3-amine]
9 | 5.63 |  | COc1cc2nc3c(c(NC4CCN(c5ccccc5OC)CC4)c2cc1OC)CCC3 [Example 49]
10 | 6.23 |  | COc1cc2c(NC(C)C)c3c(nc2cc1OCCCC(C)O)CCC3 (stereo not drawn) [Example 31]
11 | 6.85 |  | COc1cc2nc3c(c(NC4CCN(c5ccc(F)cc5)CC4)c2cc1OC)CCC3
12 | 6.5 |  | COc1cc2nc3c(c(N[C@H]4CNC[C@@H](F)C4)c2cc1OC)CCC3 [Example 412, (3R,5S)-N-{6,7-dimethoxy-1H,2H,3H-cyclopenta[b]quinolin-9-yl}-5-fluoropiperidin-3-amine]
13 | 6.7 |  | COCCN1CCC(Nc2c3c(nc4cc(OC)c(OC)cc24)CCC3)CC1 [Example 61, N-{6,7-dimethoxy-1H,2H,3H-cyclopenta[b]quinolin-9-yl}-1-(2-methoxyethyl)piperidin-4-amine]
14 | 6.12 |  | COc1cc2nc3c(c(NC4CCN(C(N)=O)CC4)c2cc1OC)CCC3 [Example 58, 4-({6,7-dimethoxy-1H,2H,3H-cyclopenta[b]quinolin-9-yl}amino)piperidine-1-carboxamide]
15 | 6.05 |  | COc1cc2nc3c(c(NC4CCN(c5ccncc5F)CC4)c2cc1OC)CCC3 [Example 55, N-{6,7-dimethoxy-1H,2H,3H-cyclopenta[b]quinolin-9-yl}-1-(3-fluoropyridin-4-yl)piperidin-4-amine]
16 | 5.5 |  | COc1cc2nc3c(c(NC4CN(C(=O)OC(C)(C)C)C4)c2cc1OC)CCC3 [Example 12]
17 | 5.57 |  | CCOCCOc1cc2nc3c(c(NC)c2cc1OC)CCC3 [Example 4, bis(formic acid)]
18 | 6.54 |  | COc1cc2c(NC3CCN(C(C)C)CC3)c3c(nc2cc1OCCO)CCC3 [Example 53, 2-[(7-methoxy-9-{[1-(propan-2-yl)piperidin-4-yl]amino}-1H,2H,3H-cyclopenta[b]quinolin-6-yl)oxy]ethan-1-ol]
19 | 5.55 |  | COc1cc2nc3c(c(NC4CCN(c5ccccc5)CC4)c2cc1OC)CCC3 [Example 14]
20 | 7.5 |  | COc1cc2nc3c(c(NCCNC(C)C)c2cc1OC)CCC3 [Example 403, 6,7-dimethoxy-N-{2-[(propan-2-yl)amino]ethyl}-1H,2H,3H-cyclopenta[b]quinolin-9-amine]
21 | 7 |  | COc1cc2nc3c(c(NCC4CCNCC4)c2cc1OC)CCC3 [Example 67, 6,7-dimethoxy-N-[(piperidin-4-yl)methyl]-1H,2H,3H-cyclopenta[b]quinolin-9-amine]
22 | 7.3 |  | COc1cc2nc3c(c(NCC4CCCN4)c2cc1OC)CCC3 (stereo not drawn) [Example 66, 6,7-dimethoxy-N-[(pyrrolidin-2-yl)methyl]-1H,2H,3H-cyclopenta[b]quinolin-9-amine]
23 | 7.67 |  | CCN1CCC(Nc2c3c(nc4cc(OC)c(OC)cc24)CCC3)CC1 [Example 15]
24 | 5 |  | COc1cc2c(NC(C)C)c3c(nc2cc1OCCOCCO)CCC3 [Example 6]
25 | 7.5 |  | COc1cc2nc3c(c(N[C@@H]4CCCN(C)CC4)c2cc1OC)CCC3 [Example 63, (4R)-N-{6,7-dimethoxy-1H,2H,3H-cyclopenta[b]quinolin-9-yl}-1-methylazepan-4-amine]
26 | 5.24 |  | COc1cc2nc3c(c(NCC4CC(N(C)C)C4)c2cc1OC)CCC3 (stereo not drawn)
27 | 7.2 |  | COc1cc2nc3c(c(N[C@@H]4CCCNC4)c2nc1OC)CCC3 [Example 149, (3R)-N-[2,3-dimethoxy-6H,7H, 8Hcyclopenta[b]1,5naphthyridin-9-yl]piperidin-3-amine]
28 | 7.9 |  | COc1cc2nc3c(c(N[C@H]4CNC[C@H](C)C4)c2cc1OC)CCC3 [Example 409, (3R,5R)-N-{6,7-dimethoxy-1H,2H,3H-cyclopenta[b]quinolin-9-yl}-5-methylpiperidin-3-amine]
29 | 5 |  | COc1cc2nc3c(c(NC4CC5(CNC5)C4)c2cc1OC)CCC3 [Example 19, bis(formic acid)]

Row | pIC50 | IC50 [µM] | Compound
30 | 6.21 |  | COc1cc2nc3c(c(NC4CCN(c5ccncc5)CC4)c2cc1OC)CCC3 [Example 22]
31 | 7.22 |  | COc1cc2nc3c(c(NC4CNC4)c2cc1OC)CCC3 [Example 13]
32 | 7.07 |  | COc1cc2nc3c(c(NC4CCN(Cc5ccccc5)CC4)c2cc1OC)CCC3 [Example 45]
33 | 5.87 |  | COc1cc2nc3c(c(NC4CCN(c5cccc(F)c5)CC4)c2cc1OC)CCC3 [Example 25]
34 |  | > 10 | COc1cc2nc3c(c(N[C@@H]4CNCC(C)(C)C4)c2cc1OC)CCC3 [Example 415, (3S)-N-{6,7-dimethoxy-1H,2H,3H-cyclopenta[b]quinolin-9-yl}-5,5-dimethylpiperidin-3-amine]
35 | 6.24 |  | COc1cc2nc3c(c(NC4CCN(C(=O)CO)CC4)c2cc1OC)CCC3 [Example 54, 1-[4-({6,7-dimethoxy-1H,2H,3H-cyclopenta[b]quinolin-9-yl}amino)piperidin-1-yl]-2-hydroxyethan-1-one]
36 | 6.2 |  | COc1cc2nc3c(c(N[C@@H]4CCCN(C)C4)c2nc1OC)CCC3 [Example 164, (3R)-N-[2,3-dimethoxy-6H,7H,8H-cyclopenta[b]1,5-naphthyridin-9-yl]-1-methylpiperidin-3-amine]
37 |  | 0.0126 | [2H]C([2H])([2H])Oc1cc2nc3c(c(N[C@@H]4CCCNC4)c2cc1OC([2H])([2H])[2H])CCC3 [Example 405, (3R)-N-[6,7-di(2H3)methoxy-1H,2H,3H-cyclopenta[b]quinolin-9-yl]piperidin-3-amine]
38 | 6.11 |  | COc1cc2nc3c(c(NC4CCN(c5ccccn5)CC4)c2cc1OC)CCC3 [Example 24]
39 |  | > 10 | COc1cc2nc3c(c(N[C@@H]4CNCC(F)(F)C4)c2cc1OC)CCC3 [Example 413, (3S)-N-{6,7-dimethoxy-1H,2H,3H-cyclopenta[b]quinolin-9-yl}-5,5-difluoropiperidin-3-amine]
40 |  | > 10 | COc1cc2nc3c(c(N[C@H]4CNCC(F)(F)C4)c2cc1OC)CCC3 [Example 410, (3R)-N-{6,7-dimethoxy-1H,2H,3H-cyclopenta[b]quinolin-9-yl}-5,5-difluoropiperidin-3-amine]
41 | 7.2 |  | COc1cc2nc3c(c(N[C@H]4CNCC(C)(C)C4)c2cc1OC)CCC3 [Example 414, (3R)-N-{6,7-dimethoxy-1H,2H,3H-cyclopenta[b]quinolin-9-yl}-5,5-dimethylpiperidin-3-amine]
42 | 7.53 |  | CC(C)N1CCC(Nc2c3c(nc4cc5c(cc24)OCO5)CCC3)CC1 [Example 20]
43 |  | > 10 | CCOc1cc2nc3c(c(N[C@@H]4CCCNC4)c2cc1OCC)CCC3 [Example 406, (3R)-N-[6,7-di(2H3)ethoxy-1H,2H,3H-cyclopenta[b]quinolin-9-yl]piperidin-3-amine]
44 | 5.53 |  | CNc1c2c(nc3cc(OCCCOC)c(OC)cc13)CCC2 [Example 3]
45 | 6.9 |  | COc1cc2nc3c(c(N[C@@H]4CNC[C@H](C)C4)c2cc1OC)CCC3 [Example 408, (3S,5R)-N-{6,7-dimethoxy-1H,2H,3H-cyclopenta[b]quinolin-9-yl}-5-methylpiperidin-3-amine]
46 | 7.27 |  | COc1cc2nc3c(c(NC4CCN(C5CCOCC5)CC4)c2cc1OC)CCC3 [Example 16, hydrochloride]
47 | 7.4 |  | COc1cc2nc3c(c(NC4CCN(C5CCCC5)CC4)c2cc1OC)CCC3 [Example 60, 1-cyclopentyl-N-{6,7-dimethoxy-1H,2H,3H-cyclopenta[b]quinolin-9-yl}piperidin-4-amine]
48 | 6.6 |  | COc1cc2nc3c(c(N[C@@H]4CCCCN(C)C4)c2nc1OC)CCC3 [Example 404, (3R)-N-[2,3-dimethoxy-6H,7H,8H-cyclopenta[b]1,5-naphthyridin-9-yl]-1-methylazepan-3-amine]
49 | 6.8 |  | COc1cc2nc3c(c(NC4CCN(C(C)C)CC4)c2nc1OC)CCC3 [Example 134, N-[2,3-dimethoxy-6H,7H,8H-cyclopenta[b]1,5-naphthyridin-9-yl]-1-(propan-2-yl)piperidin-4-amine]
50 | 6.3 |  | COc1cc2nc3c(c(NC[C@@H]4C[C@H](F)CN4)c2cc1OC)CCC3 [Example 411, N-{[(2S,4S)-4-fluoropyrrolidin-2-yl]methyl}-6,7-dimethoxy-1H,2H,3H-cyclopenta[b]quinolin-9-amine]
51 | 6.72 |  | COc1cc2c(NC3CCN(C(C)C)CC3)c3c(nc2cc1C1CC1)CCC3 [Example 57, N-{6-cyclopropyl-7-methoxy-1H,2H,3H-cyclopenta[b]quinolin-9-yl}-1-(propan-2-yl)piperidin-4-amine]
52 | 7.4 |  | COc1cc2nc3c(c(NCC4CCNC4)c2cc1OC)CCC3 (stereo not drawn) [Example 65, 6,7-dimethoxy-N-[(pyrrolidin-3-yl)methyl]-1H,2H,3H-cyclopenta[b]quinolin-9-amine]

Row | Compound | pIC50 | IC50 [µM]
53 | COc1cc2nc3c(c(N[C@H]4CNC[C@@H](C)C4)c2cc1OC)CCC3 [Example 286, (3R,5S)-N-{6,7-dimethoxy-1H,2H,3H-cyclopenta[b]quinolin-9-yl}-5-methylpiperidin-3-amine] | 8 | 
54 | COc1cc2nc3c(c(N[C@@H]4CCCNC4)c2cc1OC)CCC3 [Example 29] | 6.81 | 
